Data as given in patent US4542137A, “Alkylaminodesoxy-1.4;3.6-dianhydrohexitol nitrates substituted by purine bases and pharmaceutical compositions” (priority 1980, dated 1985).

Tested on: mongrel dogs
Assay: circulatory pharmacological effectiveness on narcotised dogs, intravenous
Format: in vivo, dog
Settings: dog i.v. ISDN/9c 1, 1d 0.5 mg/kg

Cn1c(=O)c2c(ncn2CCCN[C@H]2CO[C@H]3[C@@H]2OC[C@@H]3O[N+](=O)[O-])n(C)c1=O [Example 1d, 5-(3-Theophyllin-7-ylpropyl)-amino-5-desoxy-1.4;3.6-dianhydro-L-iditol 2-nitrate]
APdiast: diastolic aorta pressure (2 min): 67.5 mm.Hg | APsyst: systolic aorta pressure (2 min): 107.8 mm.Hg | BFFem: blood flow in the A. femoralis referred to 20 kg body weight (2 min): 42.6 mL/min | HF: heart frequency (2 min): 145.7 | HLL: heart capacity left, referred to 20 kg body weight (2 min): 0.51 W | HLR: heart capacity right, referred to 20 kg body weight (2 min): 70.9 mW | HZV: heart minute volume, referred to 20 kg body weight (2 min): 2.94 L/min | LVEDP: end diastolic pressure in the left ventricle (2 min): 3.85 mm.Hg | SV: beat volume, referred to 20 kg body weight (2 min): 21.9 mL | WAP: pulmonalis resistance, referred to 20 kg body weight (2 min): 0.35 U | WFem: moralis resistance, referred to 20 kg body weight (2 min): 0.28 KU | WTP: total peripheral resistance, referred to 20 kg body weight (2 min): 3.73 U | dp/dt: rate of pressure increase in the left ventricle (2 min): 2915.6 mm.Hg/sec | APdiast: diastolic aorta pressure (5 min): 77.8 mm.Hg | APsyst: systolic aorta pressure (5 min): 119.4 mm.Hg | BFFem: blood flow in the A. femoralis referred to 20 kg body weight (5 min): 40.8 mL/min | HF: heart frequency (5 min): 131.2 | HLL: heart capacity left, referred to 20 kg body weight (5 min): 0.47 W | HLR: heart capacity right, referred to 20 kg body weight (5 min): 58.2 mW | HZV: heart minute volume, referred to 20 kg body weight (5 min): 2.40 L/min | LVEDP: end diastolic pressure in the left ventricle (5 min): 4.78 mm.Hg | SV: beat volume, referred to 20 kg body weight (5 min): 19.6 mL | WAP: pulmonalis resistance, referred to 20 kg body weight (5 min): 0.38 U | WFem: moralis resistance, referred to 20 kg body weight (5 min): 0.32 KU | WTP: total peripheral resistance, referred to 20 kg body weight (5 min): 5.16 U | dp/dt: rate of pressure increase in the left ventricle (5 min): 2671.9 mm.Hg/sec | APdiast: diastolic aorta pressure (7 min): 75.9 mm.Hg | APsyst: systolic aorta pressure (7 min): 122.8 mm.Hg | BFFem: blood flow in the A. femoralis referred to 20 kg body weight (7 min): 42.7 mL/min | HF: heart frequency (7 min): 119.5 | HLL: heart capacity left, referred to 20 kg body weight (7 min): 0.47 W | HLR: heart capacity right, referred to 20 kg body weight (7 min): 56.8 mW | HZV: heart minute volume, referred to 20 kg body weight (7 min): 2.40 L/min | LVEDP: end diastolic pressure in the left ventricle (7 min): 5.16 mm.Hg | SV: beat volume, referred to 20 kg body weight (7 min): 21.3 mL | WAP: pulmonalis resistance, referred to 20 kg body weight (7 min): 0.37 U | WFem: moralis resistance, referred to 20 kg body weight (7 min): 0.30 KU | WTP: total peripheral resistance, referred to 20 kg body weight (7 min): 5.10 U | dp/dt: rate of pressure increase in the left ventricle (7 min): 2662.5 mm.Hg/sec | APdiast: diastolic aorta pressure (10 min): 74.6 mm.Hg | APsyst: systolic aorta pressure (10 min): 124.7 mm.Hg | BFFem: blood flow in the A. femoralis referred to 20 kg body weight (10 min): 46.2 mL/min | HF: heart frequency (10 min): 110.2 | HLL: heart capacity left, referred to 20 kg body weight (10 min): 0.47 W | HLR: heart capacity right, referred to 20 kg body weight (10 min): 57.1 mW | HZV: heart minute volume, referred to 20 kg body weight (10 min): 2.38 L/min | LVEDP: end diastolic pressure in the left ventricle (10 min): 4.69 mm.Hg | SV: beat volume, referred to 20 kg body weight (10 min): 22.9 mL | WAP: pulmonalis resistance, referred to 20 kg body weight (10 min): 0.41 U | WFem: moralis resistance, referred to 20 kg body weight (10 min): 0.28 KU | WTP: total peripheral resistance, referred to 20 kg body weight (10 min): 5.10 U | dp/dt: rate of pressure increase in the left ventricle (10 min): 2465.6 mm.Hg/sec | APdiast: diastolic aorta pressure (15 min): 75.9 mm.Hg | APsyst: systolic aorta pressure (15 min): 126.0 mm.Hg | BFFem: blood flow in the A. femoralis referred to 20 kg body weight (15 min): 48.3 mL/min | HF: heart frequency (15 min): 107.7 | HLL: heart capacity left, referred to 20 kg body weight (15 min): 0.44 W | HLR: heart capacity right, referred to 20 kg body weight (15 min): 53.8 mW | HZV: heart minute volume, referred to 20 kg body weight (15 min): 2.26 L/min | SV: beat volume, referred to 20 kg body weight (15 min): 22.0 mL | WAP: pulmonalis resistance, referred to 20 kg body weight (15 min): 0.43 U | WFem: moralis resistance, referred to 20 kg body weight (15 min): 0.28 KU | WTP: total peripheral resistance, referred to 20 kg body weight (15 min): 5.51 U | dp/dt: rate of pressure increase in the left ventricle (15 min): 2465.6 mm.Hg/sec | APdiast: diastolic aorta pressure (20 min): 78.7 mm.Hg | APsyst: systolic aorta pressure (20 min): 127.9 mm.Hg | BFFem: blood flow in the A. femoralis referred to 20 kg body weight (20 min): 51.5 mL/min | HF: heart frequency (20 min): 104.0 | HLL: heart capacity left, referred to 20 kg body weight (20 min): 0.45 W | HLR: heart capacity right, referred to 20 kg body weight (20 min): 52.8 mW | HZV: heart minute volume, referred to 20 kg body weight (20 min): 2.24 L/min | LVEDP: end diastolic pressure in the left ventricle (20 min): 5.62 mm.Hg | SV: beat volume, referred to 20 kg body weight (20 min): 22.3 mL | WAP: pulmonalis resistance, referred to 20 kg body weight (20 min): 0.41 U | WFem: moralis resistance, referred to 20 kg body weight (20 min): 0.27 KU | WTP: total peripheral resistance, referred to 20 kg body weight (20 min): 5.71 U | dp/dt: rate of pressure increase in the left ventricle (20 min): 2428.1 mm.Hg/sec | APdiast: diastolic aorta pressure (25 min): 79.7 mm.Hg | APsyst: systolic aorta pressure (25 min): 127.5 mm.Hg | BFFem: blood flow in the A. femoralis referred to 20 kg body weight (25 min): 52.9 mL/min | HLL: heart capacity left, referred to 20 kg body weight (25 min): 0.45 W | HLR: heart capacity right, referred to 20 kg body weight (25 min): 50.9 mW | HZV: heart minute volume, referred to 20 kg body weight (25 min): 2.24 L/min | LVEDP: end diastolic pressure in the left ventricle (25 min): 5.44 mm.Hg | SV: beat volume, referred to 20 kg body weight (25 min): 22.3 mL | WAP: pulmonalis resistance, referred to 20 kg body weight (25 min): 0.44 U | WFem: moralis resistance, referred to 20 kg body weight (25 min): 0.27 KU | WTP: total peripheral resistance, referred to 20 kg body weight (25 min): 5.78 U | dp/dt: rate of pressure increase in the left ventricle (25 min): 2353.1 mm.Hg/sec | APdiast: diastolic aorta pressure (30 min): 81.6 mm.Hg | APsyst: systolic aorta pressure (30 min): 130.9 mm.Hg | BFFem: blood flow in the A. femoralis referred to 20 kg body weight (30 min): 54.1 mL/min | HF: heart frequency (30 min): 101.2 | HLL: heart capacity left, referred to 20 kg body weight (30 min): 0.45 W | HLR: heart capacity right, referred to 20 kg body weight (30 min): 50.5 mW | HZV: heart minute volume, referred to 20 kg body weight (30 min): 2.18 L/min | LVEDP: end diastolic pressure in the left ventricle (30 min): 5.72 mm.Hg | SV: beat volume, referred to 20 kg body weight (30 min): 22.1 mL | WAP: pulmonalis resistance, referred to 20 kg body weight (30 min): 0.45 U | WFem: moralis resistance, referred to 20 kg body weight (30 min): 0.26 KU | WTP: total peripheral resistance, referred to 20 kg body weight (30 min): 6.10 U | APdiast: diastolic aorta pressure (40 min): 83.4 mm.Hg | APsyst: systolic aorta pressure (40 min): 133.1 mm.Hg
